This experiment addresses T1, CnCYP51 (lanosterol 14α-demethylase, CnCYP51-6×His) (Cryptococcus neoformans, UniProt J9VHT4).
T1 construct: gene CNAG_00040; full-length, C-terminal hexahistidine-tagged, codon-optimised, expressed in S. cerevisiae
Briefly: Type II absorbance difference spectral titration of purified CYP51, Hill fit. The class given is binding.

Consider two molecules from publication PMC9785471, “Exploring Cryptococcus neoformans CYP51 and Its Cognate Reductase as a Drug Target” (Journal of Fungi, 2022).

T1 sequence (J9VHT4 entry or part of it): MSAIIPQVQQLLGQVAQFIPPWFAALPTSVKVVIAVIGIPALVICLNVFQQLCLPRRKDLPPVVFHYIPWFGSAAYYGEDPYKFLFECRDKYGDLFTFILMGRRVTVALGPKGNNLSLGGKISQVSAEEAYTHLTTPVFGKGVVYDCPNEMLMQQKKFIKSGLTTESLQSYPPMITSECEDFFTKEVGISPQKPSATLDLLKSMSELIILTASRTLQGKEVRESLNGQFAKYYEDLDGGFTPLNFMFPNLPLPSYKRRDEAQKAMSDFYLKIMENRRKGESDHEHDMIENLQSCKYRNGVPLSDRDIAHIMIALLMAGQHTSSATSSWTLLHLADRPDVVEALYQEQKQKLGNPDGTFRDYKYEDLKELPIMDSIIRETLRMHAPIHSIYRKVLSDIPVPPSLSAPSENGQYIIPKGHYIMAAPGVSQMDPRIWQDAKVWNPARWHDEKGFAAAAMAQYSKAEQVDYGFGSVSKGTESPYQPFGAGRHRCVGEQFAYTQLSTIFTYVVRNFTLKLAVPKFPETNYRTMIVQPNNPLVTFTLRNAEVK

As a reminder, the Kd is the concentration at which binding is half-saturated. The molecule `CC[C@@H]([C@H](C)O)n1ncn(-c2ccc(N3CCN(c4ccc(OC[C@@H]5CO[C@@](Cn6cncn6)(c6ccc(F)cc6F)C5)cc4)CC3)cc2)c1=O` [PCZ, Posaconazole] displayed a Kd of 200 ± 10 nM.
Next, `C[C@@H](c1ncncc1F)[C@](O)(Cn1cncn1)c1ccc(F)cc1F` [VCZ, Voriconazole]: 390 ± 13 nM.
